Source: article PMC11052077, “Discovery of Dolutegravir Derivative against Liver Cancer via Inducing Autophagy and DNA Damage” (Molecules, 2024)

What was measured:
Format in all cases: cell-based, human
[1] = system: γ-H2AX in Huh7 cells; test: γ-H2AX immunofluorescence / DNA damage staining, Huh7; conditions: Huh7, 5, 10, 20 μM, 24 h
Experimental: The phosphorylation of H2AX serves as a highly specific and sensitive molecular marker for DNA damage. Through Western blotting, we have confirmed that compounds 5e and 5p induce DNA damage in Huh7 and HepG2 cells. To further substantiate the inhibitory effect of compounds 5e and 5p on Huh7 cells, immunofluorescence was employed to assess their correlation with γ-H2AX.
The Huh7 cells with a density of 5 × 10^3 cells per well were seeded in a 96-well plate for overnight incubation. Then, different concentrations (0, 5 μM, 10 μM, 20 μM) of the compounds 5e and 5p were added to cells for 24 h. A DNA damage detection kit was used to dye the cells, and cells were observed and photographed by a fluorescent microscope. Cell nucleus is stained blue, and DNA damage is shown as green fluorescence.

[2] = system: γ-H2AX; test: Western blot, γ-H2AX; conditions: 2, 4, 8 μM, 48 h, Huh7, western blot
Experimental: To elucidate the impact of compounds 5e and 5p on the regulation of cell proliferation, we examined the expression levels of key proteins involved in cell growth processes, encompassing autophagy, apoptosis, cell cycle, and DNA damage (Figure 7).
Protein expression levels were measured by western blot. Huh7 cells were cultured in 12-well plates and different concentrations (0, 2, 4, 8 μM) of 5e and 5p were added for 48 h. Proteins were extracted from whole cells using radio-immunoprecipitation assay (RIPA) buffer containing a protease/phosphatase inhibitor cocktail (CST). Then, 10–15% sodium dodecyl sulfate polyacrylamide gel electrophoresis and nitrocellulose membranes (Millipore) were employed to separate and collect proteins. Antibodies used include LC3 (3868s, CST), Caspase3 (9662, CST), cyclin D (2922s, CST), cyclin E (20808s, CST), γH2AX (9718s, CST), β-Catenin (9562s, CST), and β-actin (4967s, CST).

[3] = system: Huh7 cells; test: Apoptosis assay, Annexin V-FITC/PI flow cytometry; conditions: 48 h
Experimental: Given the observed inhibitory effects of compounds 5e and 5p on cancer cell proliferation, we further investigated their impact on cell apoptosis. Apoptosis analysis was conducted on Huh7 cells treated with varying concentrations of 5e or 5p, utilizing Annexin V-FITC and PI staining, followed by flow cytometry to quantify apoptotic cells.
Huh7 cells were cultured in 6-well plates with a density of 3 × 10^5 cells/well. Different concentrations of 5e or 5p were added to cells for 48 h, respectively. The concentrations were 0, 2, 4, and 8 μM for Huh7 cells. After treatment, Annexin V-FITC Apoptosis Detection Kit (Elabscience, Wuhan, China) was used to determine the apoptotic ratio and FlowJo software v10 was used to analyze.

[4] = system: hepG2 cells; test: CCK8 cell viability assay, hepG2
Experimental: This study aimed to assess the anti-proliferative activity of dolutegravir-1,2,3-triazole derivatives on hepatocellular carcinoma cell lines, Huh7 and hepG2. A comprehensive CCK8 assay was employed to evaluate the impact of these compounds on cell viability, with cells treated at a concentration of 20 μM for 48 h. HRM cells, a normal cell line, were included as a control for comparative analysis.
Human hepatocellular carcinoma cell lines Huh7 and hepG2 were obtained from ATCC (Manassas, VA, USA). Cells were cultured in DMEM or RPMI 1640 medium containing 10% FBS and 1% penicillin/streptomycin at 37 °C with a 5% CO2-humidified atmosphere.
CCK8 assay was used to measure cell viability. Cells with a density of 1 × 10^4 cells/well were seeded on 96-well plates. After adhesion, cells were treated with different diluted compounds or vehicle control DMSO and continued to be cultured for 48 h or 72 h, respectively. Then, CCK8 reagent was added for one hour incubation at 37 °C with 5% CO2. Absorbance was measured using a Microplate spectrophotometer (Thermo, Waltham, MA, USA) at 450 nm. The ratio of cell viability of control was taken as 100%. […] Then, IC50 of compounds were investigated using the prism statistical software 7.0.

[5] = system: Huh7 cells; test: Cell cycle assay, PI staining flow cytometry; conditions: 8 μM, 48 h
Experimental: To further investigate the effects of compounds 5e and 5p on regulation of the cell cycle, we treated cancer cells with different concentrations of 5e or 5p for 48 h and then analyzed cell cycle distribution using flow cytometry.
Huh7 cells were cultured in 6-well plates with a density of 3 × 10^5 cells/well. Cells were treated with different concentrations (0, 4, and 8 μM for Huh7) of 5e or 5p for 48 h respectively. Then the cell cycle was determined by PI staining using the flow cytometer(Thermo, Beijing, China).

Compound: COc1c2n(cc(C(=O)Nc3cccc(-c4cn(-c5cccc(C(F)(F)F)c5)nn4)c3)c1=O)CC1OCCC(C)N1C2=O (centres unmarked) [Compound 5p]
- γ-H2AX expression by immunofluorescence [1]: increased the expression of γ-H2AX
- γ-H2AX protein expression (DNA damage) [2]: induction of γ-H2AX
- apoptosis in Huh7 cells ([3]; 2 μM): no significant impact
- apoptosis in Huh7 cells ([3]; 4 μM): remarkable apoptosis
- apoptosis in Huh7 cells ([3]; 8 μM): remarkable apoptosis
- Cell Viability (100%), 20 μM, 48 h, hepG2 ([4]; 20 μM, hepG2, CCK8, control taken as 100%): 30.66%
- IC50 ([4]; 48 h, hepG2, CCK8, read-out: half maximal inhibitory concentration (IC50), hepG2): 4.83 ± 1.17 µM
- effect on S phase of cell cycle [5]: clearly decreased phase of S
